According to patent publication US20130071547A1, “LOW CALORIC FAT REPLACERS” (NESTEC S.A., priority 2009, published 2013):
Entries after “also recorded” stand apart in the source; their conditions may differ. Where two headings read alike, the source gives them in different places. One block for each compound: values may come before it.

How the values were obtained:
[1] = test system: subjects; assay: 2-Alternative forced choice test, which solution tastes fattier (Medica 16, rosiglitazone); assay type: in vivo, human; settings: agonist solution vs water, 40 subjects, p<0.05
Experimental: A correct choice is defined as choosing as fattier the sample containing the test ingredients. Medica 16 and rosiglitazone were assessed independently at three concentration, 10 μM, 50 μM and 100 μM.
Forty subjects were given two solutions one containing the agonist and the other water, and asked which one tastes fattier.

[2] = test system: subjects; assay: Descriptive information on taste, texture and after taste of compound 20; assay type: in vivo, human; settings: 51.2 μM in 0.5% ethanol, nose clips; for Taste (descriptor: number of subjects): wrapped cell: 'Slightly savoury: 1'; for Texture (descriptor: number of subjects): wrapped cells: 'Slightly viscous: 2', 'Slightly coats the mouth: 2'
Experimental: Six subjects wearing nose clips were presented with 0.5% ethanol in water (warm up sample) or 51.2 μM compound 20 in 0.5% ethanol (reference sample). Participants were asked to describe, avoiding hedonic terms, the taste, texture and aftertaste of the reference sample. Five out of 6 subjects found texture attributes compatible with the texture of fat.

[3] = target: T1, GPR40 (Homo sapiens, UniProt O14842); settings: cited from earlier work
T1 construct: expressed in transfected cells; host or cells: Chem-1 (Chem1) cells stably expressing GPR40
T1 sequence (O14842 whole entry, species assumed): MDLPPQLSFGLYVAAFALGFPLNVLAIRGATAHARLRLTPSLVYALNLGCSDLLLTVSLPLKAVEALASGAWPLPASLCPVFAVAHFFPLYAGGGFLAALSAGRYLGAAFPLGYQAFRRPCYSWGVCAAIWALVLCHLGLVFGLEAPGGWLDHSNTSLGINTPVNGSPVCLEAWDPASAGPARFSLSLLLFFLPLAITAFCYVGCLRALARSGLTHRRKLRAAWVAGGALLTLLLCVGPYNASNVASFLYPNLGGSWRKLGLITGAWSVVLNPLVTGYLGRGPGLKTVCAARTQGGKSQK

[4] = test system: subjects; assay: Triangle tests with GPR40 agonists (identify the odd sample); assay type: in vivo, human; settings: highest concentration tested, 0.5% ethanol in water, nose clips; for participants who correctly identified the odd sample: one compound cup and two control cups; for identification of the sample with the compound as the odd sample (significance): 21 subjects
Experimental: The GPR40 agonist (Compound 5 or Compound 20) was dissolved in 0.5% ethanol in water. Control samples were 0.5% ethanol in water. Three concentrations for compound 5 and four concentrations for compound 20 were tested. For each concentration twenty one subjects wearing nose clips were presented with one cup containing the compound and two control cups in a random order. The subjects were asked to identify the odd sample. […] The significance level is shown with a dashed line. * p<0.01, ** p<0.0001
Triangle tests were used with 21 subjects to determine if solutions containing Compound 5 or Compound 20 taste different from solutions with the same vehicle but without compounds. The subjects, wearing nose clips, were presented with three samples in random order, one containing the agonist, and two control solutions, and were asked to identify the odd sample. Eighteen out of 21 participants correctly identified the highest concentration of compound 5 (p<0.0001), and 13 out of 21 correctly identified the highest concentration of Compound 20 (p<0.01) (FIG. 3).

[5] = test system: subjects; assay: Description of the sensory attributes of GPR40 agonists by untrained subjects; assay type: in vivo, human; settings: for SUMMARY of the comments (sensory attributes): eight subjects with nose clips; for sensory attributes described by most participants: 0.5% ethanol solutions, untrained subjects with nose clips; for fatty mouth sensation (overall conclusion of Example 2): conclusion from triangle and descriptive tests
From the text: In a different experiment, untrained subjects were asked to describe the sensory attributes of the agonists. The majority of participants described the molecules as creamy, oily, or providing mouth and lip coating (Tables 2 and 3).
Eight subjects wearing nose clips were presented with 0.5% ethanol solutions containing agonists of GPR40 and asked to describe them.

[6] = test system: subjects; assay: 2-Alternative forced choice test of the fattiness of 12-Methyltridecanal; assay type: in vivo, human
Experimental: 12-Methyltridecanal was dissolved in 0.5% ethanol in water. Control samples were 0.5% ethanol in water. Three concentrations were tested. For each concentration thirty nine subjects wearing nose clips were presented with one cup containing the compound and one control cup in a random order. The subjects were asked to identify which sample is fattier. The significance level is shown with a solid line.
2-Alternative forced choice tests were used to test the fattiness of 12-Methyltridecanal. Thirty nine subjects were presented with two cups, one with a solution containing 12-Methyltridecanal and the other vehicle alone. The subjects were wearing nose clips, and were asked which sample is fattier. A significant number of participants found the sample containing the highest concentration of 12-Methyltridecanal fattier (28 out of 39 subjects, p<0.01) (FIG. 5).

[7] = target: T1, GPR40; assay: Calcium response of Chem-1 cells stably expressing GPR40 (calcium sensitive dye, Flex station); assay type: cell-based
From the text: The calcium response of Chem-1 cells stably expressing GPR40 to increasing concentration of 12-Methyltridecanal is shown.
To determine if 12-Methyltridecanal is an agonist of GPR40, Chem1 cells stably expressing GPR40 were loaded with a calcium sensitive dye, stimulated with increasing concentrations of 12-Methyltridecanal, and their calcium response measured using a Flex station.

[8] = test system: wild type Chem1 cells; assay: Calcium response of wild type Chem1 cells (control cells); assay type: cell-based

Compound: CC(C)(CCCCCCCCCCC(C)(C)CC(=O)O)CC(=O)O [Medica 16]
- sample with agonist chosen as tasting fattier than control ([1]; 50 μM): significantly chosen as fattier than control solution; also recorded: more subjects found the solution with agonists to taste fattier
- sample with agonist chosen as tasting fattier than control ([1]; 100 μM): significantly chosen as fattier than control solution; also recorded: more subjects found the solution with agonists to taste fattier

Compound: Cc1ccccc1C#Cc1ccc(CCC(=O)O)cc1 [Compound 20]
- subjects who found texture attributes compatible with the texture of fat [2]: Five
- Others (comments) ([2]; six subjects, wrapped cell: 'Slightly burning, hot, at the side of the tongue after spitting out.'): Slightly burning,
- Taste (descriptor: number of subjects) ([2]; six subjects): Slightly
- Taste (descriptor: number of subjects) ([2]; six subjects, no taste noted): None: 5
- After taste (descriptor: number of subjects) ([2]; six subjects, wrapped cells: 'Astringent at the back of the throat', 'Bitter - Very slightly'): None: 3
- Texture (descriptor: number of subjects) ([2]; six subjects): Slightly
- Texture (descriptor: number of subjects) ([2]; six subjects, a bit oily texture): A bit oily: 1
- Texture (descriptor: number of subjects) ([2]; six subjects, greasy texture): Greasy: 2
- Texture (descriptor: number of subjects) ([2]; six subjects, no texture noted): None: 1
- Texture (descriptor: number of subjects) ([2]; six subjects, slightly coats the mouth): Slightly coats
- Texture (descriptor: number of subjects) ([2]; six subjects, waxy texture): Waxy: 1
- GPR40 agonist activity ([3]; as described in Christiansen et al, Journal of Medicinal Chemistry, 2008, 51, 7061-7064): GPR40 agonist activity was demonstrated
- participants who correctly identified the odd sample [4]: 13 out of 21
- identification of the sample with the compound as the odd sample (significance) [4]: a significant number of subjects were able to identify the sample with the compound as the odd sample
- SUMMARY of the comments (sensory attributes) ([5]; 51.2 μM in 0.5% ethanol, agreement over most participants on lip coating, creamy): Coating the lips, creamy; also recorded: Slightly bitter
- sensory attributes described by most participants [5]: agreement from most participants on the creaminess, mouth and lip coating
- fatty mouth sensation (overall conclusion of Example 2) [5]: impart a fatty mouth sensation

- calcium response to increasing concentrations [7]: clear dose-dependant response
Compound: CC(C)CCCCCCCCCCC=O [12-Methyltridecanal]
- fatty taste effect versus control ([6]; 10 μM (lowest concentration), 39 subjects, 0.5% ethanol in water, nose clips): no significant effect
- subjects choosing the sample with the compound as fattier than control (correct choice) ([6]; 50 μM, 39 subjects, trend, p<0.05, not significant when taking into consideration multiple testing): 26
- subjects choosing the sample with the compound as fattier than control ([6]; 100 μM (highest concentration), 39 subjects, 0.5% ethanol in water, nose clips, p<0.0087 (p<0.01)): 28 subjects
- fatty mouth sensation (overall conclusion of Example 2) ([6]; conclusion from 2-Alternative forced choice test): impart a fatty mouth sensation
- calcium response to increasing concentrations [8]: do not respond; also recorded: did not respond

Compound: CCCCC/C=C\C/C=C\CCCCCCCC(=O)O [Linoleic acid]
- SUMMARY of the comments (sensory attributes) ([5]; 450 μM in 0.5% ethanol, r7 continues in r8 ('texture.')): Astringent. Pungent; also recorded: Some mentions on creamy, viscous

Compound: CC#CC(CC(=O)O)c1ccc(OCc2cc(-c3ccccc3)oc2C)cc1 (stereo not drawn) [Compound 5]
- GPR40 agonist activity ([3]; as described in patent WO2005/086661): GPR40 agonist activity was demonstrated
- participants who correctly identified the odd sample [4]: Eighteen
- identification of the sample with the compound as the odd sample (significance) [4]: a significant number of subjects were able to identify the sample with the compound as the odd sample
- SUMMARY of the comments (sensory attributes) ([5]; 40 μM in 0.5% ethanol, agreement over most participants on mouth coating, creaminess): Bitter; also recorded: Astringent/tingling; also recorded: Slight mouth coating, Creaminess; also recorded: Persistent
- sensory attributes described by most participants [5]: agreement from most participants on the creaminess, mouth and lip coating
- fatty mouth sensation (overall conclusion of Example 2) [5]: impart a fatty mouth sensation

Compound: CN(CCOc1ccc(CC2SC(=O)NC2=O)cc1)c1ccccn1 (stereo not drawn) [Roziglitazone]
- sample with agonist chosen as tasting fattier than control ([1]; 50 μM): more subjects found the solution with agonists to taste fattier
- sample with agonist chosen as tasting fattier than control ([1]; 50 μM, listed as rosiglitazone): significantly chosen as fattier than control solution
- sample with agonist chosen as tasting fattier than control ([1]; 100 μM): more subjects found the solution with agonists to taste fattier
- sample with agonist chosen as tasting fattier than control ([1]; 100 μM, listed as rosiglitazone): significantly chosen as fattier than control solution
